Laboratory results reported in patent US12583851B2, “Heteroaryl-substituted pyrazine derivatives as pesticides” (Elanco Animal Health GmbH, priority 2019, dated 2026).

Columns and labels:
Type in all cases: in vivo
[1] = tested on: Rhipicephalus (Boophilus) microplus larvae (strain Parkhurst, resistant against synthetic pyrethroids); assay: Rhipicephalus (Boophilus) microplus in-vitro contact test, larval cattle tick; details: after 48 hours, read-out: efficacy (larvae dead or moribund); for pest or weed control at 1 µg/cm2, 100 g/ha: 1 μg/cm^2 (=100 g/ha); for pest or weed control at 5 µg/cm2, 500 g/ha: 5 μg/cm^2 (=500 g/ha)
In short: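 Acetone solutions were coated onto glass tube walls (900 ppm gives 5 μg/cm²); after drying, 20–50 pyrethroid-resistant Parkhurst larvae added and held at 27 °C, 85% RH. At 48 h, efficacy as % larvae dead or moribund, judged by loss of negative geotaxis.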

[2] = tested on: adult unfed cat fleas (Ctenocephalides felis); assay: Ctenocephalides felis oral test; details: 48 h, 100 ppm in citrated cattle blood, after 2 days
Protocol: Ctenocephalides felis—Oral Test
(§1) Solvent: dimethyl sulfoxide
To produce a suitable preparation of active compound, 10 mg of active compound are dissolved in 0.5 mL solvent, and the concentrate is diluted with citrated cattle blood to the desired concentration.
Approximately 20 adult unfed cat fleas (Ctenocephalides felis) are placed in a flea chamber whose top and bottom is covered with gauze. A chamber whose bottom is sealed with parafilm, is filled with the blood-compound solution and placed on top of the flea chamber, so that the fleas can suck the blood. The blood chamber is heated to 37° C. whereas the flea chamber is kept at room temperature.
After 2 days mortality in % is determined. 100% means all the fleas have been killed; 0% means none of the fleas have been killed.

[3] = tested on: larvae of the banded cucumber beetle (Diabrotica balteata); assay: Diabrotica balteata spray test; details: 168 h, after 7 days, read-out: efficacy (seedling growth); for pest or weed control at 32 µg/disc, 100 g/ha: 100 g/ha (=32 μg/well); for pest or weed control at 6.4 µg/disc, 20 g/ha: 20 g/ha (=6.4 μg/well)
In short: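 Germinated wheat seedlings (5 per well, on agar) sprayed with compound in acetone/DMF with emulsifier-containing water, then infested with 10–20 Diabrotica balteata larvae. Efficacy (%) scored after 7 days from seedling growth: 100% = growth as untreated uninfested control, 0% = no seedlings grown.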

[4] = tested on: fall armyworm larvae (Spodoptera frugiperda); assay: Spodoptera frugiperda spray test; details: 168 h, maize leaf sections, after 7 days
In short: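 Compound dissolved in acetone/dimethylformamide, diluted in water containing 1000 ppm alkylarylpolyglycol ether emulsifier and sprayed onto maize leaf sections. Dried sections were infested with larvae; % mortality scored after 7 days (100% = all caterpillars killed, 0% = none).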

[5] = tested on: adult engorged female ticks (Rhipicephalus microplus); assay: Rhipicephalus (Boophilus) microplus injection test; details: 168 h, 4 μg/animal, egg deposition after 7 days, read-out: efficacy (infertile eggs)
Protocol: Rhipicephalus (Boophilus) microplus—Injection Test
as §1
To produce a suitable preparation of active compound, 10 mg of active compound are dissolved in 0.5 mL solvent, and the concentrate is diluted with solvent to the desired concentration.
Five adult engorged female ticks (Rhipicephalus microplus) are injected with 1 μL compound solution into the abdomen. The ticks are transferred into replica plates and incubated in a climate chamber.
After 7 days egg deposition of fertile eggs is monitored. Eggs where fertility is not visible are stored in a climate chamber till hatching after about 42 days. An efficacy of 100% means all eggs are infertile; 0% means all eggs are fertile.

[6] = tested on: adult brown dog ticks (Rhipicephalus sanguineus); assay: Rhipicephalus sanguineus in-vitro contact test, adult brown dog ticks; details: 48 h, 5 μg/cm^2 (=500 g/ha), after 48 hours, read-out: efficacy (ticks dead or moribund)
Protocol: Rhipicephalus sanguineus—In-Vitro Contact Tests with Adult Brown Dog Ticks
9 mg compound is solved in 1 mL acetone and diluted with acetone to the desired concentration. […] the test solution is filled in 25 mL glass test tubes and homogeneously distributed on the inner walls by rotation and tilting on a shaking device (2 h at 30 rpm). With a compound concentration of 900 ppm, an inner surface of 44.7 cm^2 and a homogeneous distribution, a dose of 5 μg/cm^2 is achieved.
After the solvent has evaporated, each test tube is filled with 5-10 adult brown dog ticks (Rhipicephalus sanguineus), closed with a perforated lid and incubated in a lying position at room temperature and relative humidity. After 48 hours efficacy is determined. The ticks are patted on the ground of the tubes and are incubated on a heating plate at 45-50° C. for at most 5 minutes Immotile or uncoordinated moving ticks, which are not able to escape the heat by climbing upwards, are marked as dead or moribund.
An efficacy of 100% means all ticks are dead or moribund; 0% means no ticks are dead or moribund.

[7] = tested on: adult cat fleas (Ctenocephalides felis); assay: Ctenocephalides felis in-vitro contact test, adult cat flea; details: after 48 hours, read-out: efficacy (fleas dead or moribund)
Protocol: Ctenocephalides felis—In-Vitro Contact Tests Adult Cat Flea
9 mg compound is solved in 1 ml acetone and diluted with acetone to the desired concentration. 250 μL of the test solution is filled in 25 mL glass test tubes and homogeneously distributed on the inner walls by rotation and tilting on a shaking device (2 h at 30 rpm). With a compound concentration of 900 ppm, an inner surface of 44.7 cm^2 and a homogeneous distribution, a dose of 5 μg/cm^2 is achieved.
After the solvent has evaporated, each test tube is filled with 5-10 adult cat fleas (Ctenocephalides felis), closed with a perforated lid and incubated in a lying position at room temperature and relative humidity. After 48 hours efficacy is determined. The fleas are patted on the ground of the tubes and are incubated on a heating plate at 45-50° C. for at most 5 minutes Immotile or uncoordinated moving fleas, which are not able to escape the heat by climbing upwards, are marked as dead or moribund.
An efficacy of 100% means all fleas are dead or moribund; 0% means no fleas are dead or moribund.

[8] = tested on: larvae of the southern green stink bug (Nezara viridula); assay: Nezara viridula spray test; details: 96 h, 500 g/ha, barley plants, after 4 days
Protocol: Nezara viridula—Spray Test
Solvent: 78.0 parts by weight of acetone • • 1.5 parts by weight of dimethylformamide
Emulsifier: alkylarylpolyglycol ether
To produce a suitable preparation of active compound, 1 part by weight of active compound is mixed with the stated amount of solvent, and the concentrate is diluted with water, containing an emulsifier concentration of 1000 ppm, to the desired concentration. Further test concentrations are prepared by dilution with emulsifier containing water.
Barley plants (Hordeum vulgare) infested with larvae of the southern green stink bug (Nezara viridula) are sprayed with a test solution containing the desired concentration of the active ingredient.
After 4 days mortality in % is determined. 100% means all the stink bugs have been killed; 0% means none of the stink bugs have been killed.

Row | Structure (SMILES) | pest or weed control at 1 µg/cm2, 100 g/ha [1] [%] | mortality at 100 ppm [2] [%] | pest or weed control at 32 µg/disc, 100 g/ha [3] [%] | mortality at 100 g/ha [4] [%] | pest or weed control at 0.004 mg [5] [%] | pest or weed control at 5 µg/cm2, 500 g/ha [6] [%] | pest or weed control at 6.4 µg/disc, 20 g/ha [3] [%] | pest or weed control at 5 µg/cm2, 500 g/ha [1] [%] | pest or weed control at 1 µg/cm2, 100 g/ha ([7]; 1 μg/cm^2 (=100 g/ha)) [%] | pest or weed control at 5 µg/cm2, 500 g/ha ([7]; 5 μg/cm^2 (=500 g/ha)) [%] | mortality at 500 g/ha [8] [%]
1 | CC(NC(=O)c1cc(Cl)cc(C(F)(F)F)c1)c1nccnc1-c1ccccn1 (racemic) [Example I-1, (rac)-3-Chloro-N-{1-[3-(pyridin-2-yl)pyrazin-2-yl]ethyl}-5-(trifluoromethyl)benzamide] | 100 | 90 | 100 | 100 | – | – | – | – | – | – | –
2 | CC(NC(=O)c1cncc(C(F)(F)F)c1)c1nccnc1-c1nccs1 (racemic) [Example I-2, (rac)-N-(1-(3-(Thiazol-2-yl)pyrazin-2-yl)ethyl)-5-(trifluoromethyl)nicotinamide] | – | 90 | – | – | 100 | 100 | – | – | – | – | –
3 | CC(NC(=O)c1cc(Cl)cc(C(F)(F)F)c1)c1nccnc1-c1nccs1 (racemic) [Example I-3, (rac)-3-Chloro-N-(1-(3-(thiazol-2-yl)pyrazin-2-yl)ethyl)-5-(trifluoromethyl)benzamide] | – | 90 | 100 | – | 100 | – | 80 | – | – | – | –
4 | CC(NC(=O)c1cc(C(F)(F)F)cc(C(F)(F)F)c1)c1nccnc1-c1nccs1 (racemic) [Example I-5, (rac)-N-(1-(3-(Thiazol-2-yl)pyrazin-2-yl)ethyl)-3,5-bis(trifluoromethyl)benzamide] | 100 | 90 | 80 | – | 80 | – | – | 100 | – | – | –
5 | CC(NC(=O)c1cncc(C(C)(C)C)c1)c1nccnc1-c1ncccn1 (racemic) [Example I-11, (rac)-5-(tert-Butyl)-N-(1-(3-(pyrimidin-2-yl)pyrazin-2-yl)ethyl)nicotinamide] | – | 90 | – | – | – | – | – | 100 | – | – | –
6 | CC(NC(=O)c1cc(C(F)(F)F)cc(C(F)(F)F)c1)c1nccnc1-c1ncc(C(=O)N(C)CC(F)(F)F)s1 (racemic) [Example I-65, (rac)-2-(3-{1-[3,5-Bis(trifluoromethyl)benzamido]ethyl}pyrazin-2-yl)-N-methyl-N-(2,2,2-trifluoroethyl)-1,3-thiazole-5-carboxamide] | 100 | 80 | – | 100 | 80 | 80 | – | 100 | 100 | 100 | –
7 | CC(NC(=O)c1cc(Cl)cc(S(C)(=O)=O)c1)c1nccnc1-n1cc(Cl)cn1 (racemic) [Example I-99, (rac)-3-Chloro-N-{1-[3-(4-chloro-1H-pyrazol-1-yl)pyrazin-2-yl]ethyl}-5-(methanesulfonyl)benzamide] | – | – | – | – | – | – | – | – | – | – | 100
8 | CC(NC(=O)c1cc(Cl)cc(OC(F)(F)F)c1)c1nccnc1-c1ccccn1 (stereo not shown) [Example I-12] | – | 100 | 100 | 83 | – | – | 100 | – | – | – | –
9 | CC(NC(=O)c1cc(C(F)(F)F)cc(C(F)(F)F)c1)c1nccnc1-c1ccccn1 (stereo not shown) [Example I-13] | 100 | 90 | 80 | 100 | 80 | – | 100 | 100 | – | – | –
10 | CC(NC(=O)c1cc(Cl)cc(Br)c1)c1nccnc1-c1ccccn1 (stereo not shown) [Example I-14] | 90 | 100 | 80 | – | 80 | – | 80 | 80 | – | – | –
11 | CC(NC(=O)c1cc(C#N)cc(C(F)(F)F)c1)c1nccnc1-c1ccccn1 (stereo not shown) [Example I-15] | 80 | 100 | 100 | – | 80 | – | – | 80 | – | – | –
12 | CC(NC(=O)c1cc(Br)cc(C#N)c1)c1nccnc1-c1ccccn1 (stereo not shown) [Example I-16] | – | 100 | 100 | – | – | 80 | – | – | – | – | –
13 | CC(NC(=O)c1cc(Cl)cc(C#N)c1)c1nccnc1-c1ccc(Cl)cn1 (stereo not shown) [Example I-23] | – | 100 | – | 100 | 100 | – | – | – | – | – | –
14 | CC(NC(=O)c1cc(Cl)cc(C(F)(F)F)c1)c1nccnc1-c1ccc(Cl)cn1 (stereo not shown) [Example I-24] | 90 | 100 | 100 | 100 | 100 | – | 100 | 90 | – | – | –
15 | CC(NC(=O)c1cc(C#N)cc(C(F)(F)F)c1)c1nccnc1-c1ccc(Cl)cn1 (stereo not shown) [Example I-25] | – | 90 | 100 | 100 | 80 | – | 100 | – | – | – | –
